Data from PubChem BioAssay (NCI).
Values joined by “and” are separate entries in the source; they are usually repeats but may differ in a detail not shown here. Equal values may be shown once.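 Cultured in 96-well plates, cells were exposed to test compound for 48 hours across five concentrations. GI50: concentration for 50% inhibition of growth. TGI denotes the concentration required for complete inhibition of growth.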

Assays:
Experiment in all cases: NCI-60 cell line screen, 48 h
DMS 114 small cell lung = tested on: DMS 114 small cell lung
HCC-2998 colon = tested on: HCC-2998 colon
HCT-116 colon = tested on: HCT-116 colon
HOP-62 NSCLC = tested on: HOP-62 NSCLC
HOP-92 NSCLC = tested on: HOP-92 NSCLC
MALME-3M melanoma = tested on: MALME-3M melanoma
SK-MEL-5 melanoma = tested on: SK-MEL-5 melanoma
SN12C renal = tested on: SN12C renal
UO-31 renal = tested on: UO-31 renal
M19-MEL melanoma = tested on: M19-MEL melanoma

| Structure (SMILES) | TGI (DMS 114 small cell lung) [µM] | TGI (HCC-2998 colon) | TGI (HCT-116 colon) | TGI (HOP-62 NSCLC) | TGI (HOP-92 NSCLC) | TGI (MALME-3M melanoma) | TGI (SK-MEL-5 melanoma) | TGI (SN12C renal) | TGI (UO-31 renal) | TGI (M19-MEL melanoma) [µM] | GI50 (HCC-2998 colon) | GI50 (HCT-116 colon) [µM] | GI50 (HOP-62 NSCLC) | GI50 (HOP-92 NSCLC) | GI50 (MALME-3M melanoma) [µM] | GI50 (SK-MEL-5 melanoma) | GI50 (SN12C renal) | GI50 (UO-31 renal) |
| --- | --- | --- | --- | --- | --- | --- | --- | --- | --- | --- | --- | --- | --- | --- | --- | --- | --- | --- |
| FC(F)(F)c1ccc(C=NC23CC4CC(CC(C4)C2)C3)cc1 | > 100 | > 100 µM | > 100 µM | > 100 µM | > 100 µM | > 100 µM | > 100 µM | > 100 µM | > 100 µM |  |  |  |  |  |  |  |  |  |
| Cc1cc(O)c2c(c1)C(=O)c1cc(O)cc(O)c1C2=O | > 100 | > 100 µM | > 58.9 µM | 44.3 µM | 56.8 µM | 50.6 µM | 24.4 µM | > 78.9 µM |  |  |  |  |  |  |  |  |  |  |
| NC(=O)c1csc(C2C=CC(CO)O2)n1 (stereo not drawn) | > 100 | > 100 µM | > 100 µM | > 100 µM | > 100 µM | > 100 µM |  | > 100 µM | > 100 µM |  |  |  |  |  |  |  |  |  |
| CC(=O)NNc1nc(C)c(C(/C=C/c2ccc(Cl)cc2)=N\NS(=O)(=O)c2ccc(C)cc2)s1 |  | > 100 µM | > 100 µM | > 100 µM | > 100 µM | > 100 µM | > 100 µM | > 100 µM | > 100 µM | > 100 |  |  |  |  |  |  |  |  |
| Cc1cc(S(=O)(=O)Nc2nc3ccsc3c(=O)n2Cc2ccco2)c(S)cc1Cl |  | > 100 µM | > 100 µM | > 100 µM | > 100 µM | > 100 µM | > 100 µM | > 100 µM | > 100 µM |  | > 100 µM | > 100 | > 100 µM | > 100 µM | > 100 | 42.9 µM | > 100 µM | > 100 µM |
| Cc1ccc(S(=O)(=O)Oc2ccc3c4c(c(=O)oc3c2)CCCCC4)cc1 |  | > 100 µM | > 100 µM | > 100 µM | > 100 µM | > 100 µM | > 100 µM | > 100 µM | > 100 µM |  | > 100 µM | 6 | > 100 µM | 9.26 µM | > 100 | 2.75 µM | > 100 µM | > 100 µM |
| COc1cc2cc(Oc3ccc(NC(=O)Nc4ccccc4)cc3)c(C)nc2cc1OCCN1CCCCC1 |  | 10.5 µM | 10.1 µM | 12.9 µM | 7.66 µM | 10.9 µM | 10.1 µM | 10.2 µM | 7.94 µM |  | 5.62 µM | 4.77 | 5.96 µM | 2.72 µM | 5.96 | 5.47 µM | 5.15 µM | 3.87 µM |
| C/C(=N\NC(=O)CC(=O)Nc1ccc(Cl)cc1)c1cc2ccccc2oc1=O | > 100 |  | > 100 µM | > 100 µM |  | > 100 µM | > 100 µM | > 100 µM | > 100 µM | > 100 |  |  |  |  |  |  |  |  |
| O=C1C=CC(=O)C1(Br)Br |  | 31.2 µM | 20.9 µM | 38.4 µM | 40.9 µM | 41.5 µM | 34 µM | 21.4 µM | 18.7 µM |  |  |  |  |  |  |  |  |  |
| CN(C)CCNC(=O)c1cccc2cc3ccccc3nc12 |  | 5.9 µM | 4.75 µM | 6.68 µM | 5.41 µM | 3.34 µM | 2.54 µM | > 19.9 µM | 4.06 µM |  | 1.63 µM | 0.531 | 0.961 µM | 1.24 µM | 1.4 | 1.25 µM | 1.84 µM | 1.11 µM |
| CS(=O)(=O)N1CCN(Cc2cc3nc(-c4cccc5[nH]ncc45)nc(N4CCOCC4)c3s2)CC1 (tested in a mixture with another compound) |  | > 100 µM |  |  | 0.829 µM | 1.99 µM | 0.638 µM |  | 0.292 µM |  | 1.31 µM | 0.149 | 0.112 µM | 0.114 µM | 0.139 | 0.201 µM | 0.0898 µM | 0.0493 µM |
| Cc1ccc(N=C2CSc3nnc(-c4csc5c4CCCC5)n3N2)cc1 |  | > 50 µM | > 50 µM | > 50 µM | > 50 µM | > 50 µM | > 50 µM | > 50 µM | > 50 µM |  | 1.31 µM | 0.225 | 0.24 µM | 1.97 µM | 26.5 | 0.175 µM | 0.406 µM | 0.43 µM |
| Cc1c(O)c(=O)ccn1C1OC(CO)C(O)C1O (stereo not drawn) |  |  | > 100 µM | > 100 µM | > 100 µM | > 100 µM | > 100 µM | > 100 µM | > 100 µM | > 100 |  |  |  |  |  |  |  |  |
| COc1ccc2nc(NCCCNCCO)c3sc4ccc(F)cc4c(=O)c3c2c1 |  | 3.61 µM | 2.86 µM | 3.26 µM | 2.45 µM | 3.23 µM | 3.14 µM | 3.03 µM | 2.8 µM |  | 1.76 µM | 1.47 | 1.62 µM | 1.1 µM | 1.69 | 1.73 µM | 1.56 µM | 1.46 µM |
| CC(CN)[C@@H]1CC[C@]2(CO)CC[C@]3(C)[C@H](CC[C@@H]4[C@@]5(C)CCC(NCCO)C(C)(C)[C@@H]5CC[C@]43C)[C@@H]12 (stereo partly drawn) |  | 3.57 µM | 3.41 µM | 4.08 µM | 2.94 µM | 3.16 µM | 3.19 µM | 3.61 µM | 9.57 µM |  | 1.89 µM | 1.66 | 2 µM | 1.3 µM | 1.62 | 1.76 µM | 1.94 µM | 2.43 µM |
| Nc1nc2ccc([C@@H]3Nc4ccc5[nH]ncc5c4[C@H]4[C@H]5CCC(C5)[C@H]43)cc2s1 |  | 3.76 µM | 1.84 µM | 2.9 µM | 11.8 µM | 2.6 µM | 13 µM | 4.12 µM | 12.2 µM |  | 1.75 µM | 0.488 | 1.14 µM | 1.67 µM | 0.968 | 1.66 µM | 1.53 µM | 1.78 µM |
| COC(=O)c1ccc(=O)c2nc3/c(=C/O)c(O)cc(=O)c3[nH]c12 |  | 25 µM and 18.9 µM | 14.6 µM and 11.8 µM | 18.7 µM and 16.2 µM | 6.03 µM and 11.1 µM | 11.1 µM and 18.6 µM | 9.1 µM and 13.5 µM | 20 µM and 12.8 µM | 8.11 µM and 18 µM |  | 2.94 µM | 0.321 | 0.461 µM |  | 3.16 | 1.56 µM | 0.44 µM | 0.578 µM |
| Cn1ccc(=Nc2ccc(NC(=O)c3ccc(N=c4ccn(C)c5ccc([N+](=O)[O-])cc45)cc3)cc2)cc1 |  | > 100 µM | > 100 µM | > 100 µM | > 100 µM | 37.9 µM | > 100 µM | > 100 µM | > 100 µM |  | 3.85 µM | 3.76 | 8.25 µM | 42.4 µM | 2.41 | 20.3 µM | 5.09 µM | > 100 µM |
| COc1cccc(/C=C/C(=O)c2ccc(Cl)cc2Cl)c1OC |  | 27.7 µM | 5.85 µM | 30.3 µM | 19.5 µM | 28.2 µM | 28.1 µM | 19.9 µM | 17.4 µM |  | 14.5 µM | 2.31 | 16.6 µM | 4.35 µM | 13.8 | 13.3 µM | 5.73 µM | 3.43 µM |
| COc1ccc(-c2cnc(-c3ccc(F)cc3)[nH]2)cc1 |  | 25.1 µM | 3.39 µM | 21.4 µM | 13.1 µM | 22.4 µM | 20.7 µM | 23.7 µM | 20.4 µM |  | 7.4 µM | 1.36 | 8.25 µM |  | 6.12 | 7.81 µM | 8.34 µM | 6.59 µM |
| O=C(Oc1ccc([N+](=O)[O-])cc1)N1CCN(Cc2cccc(Oc3ccccc3)c2)CC1 |  | > 100 µM | > 100 µM | > 100 µM | > 100 µM | > 100 µM | 58.7 µM | > 100 µM | > 100 µM |  | > 100 µM | 44.9 | > 100 µM | 18.2 µM | > 95.3 | 18.5 µM | > 100 µM | 8.17 µM |
| COc1cc(-c2oc3c(OC)c(OC)cc(O)c3c(=O)c2OC)ccc1O | > 100 | > 100 µM | > 100 µM | > 100 µM | 9.13 µM and 30.1 µM | > 100 µM | > 100 µM and 37.7 µM | > 100 µM | > 100 µM |  | > 100 µM and 31 µM |  | 4.01 µM and 14.7 µM | 2.74 µM and 5.85 µM |  | 2.37 µM and 9.11 µM | 3.73 µM and 12.4 µM | 3.88 µM and 8.21 µM |
| COc1cc(NN=C(c2ccc(O)cc2)c2ccc(O)cc2)c([N+](=O)[O-])cc1[N+](=O)[O-] |  | 29.8 µM | 21.8 µM | 20.3 µM | 31.6 µM | 31.6 µM | 20.6 µM | 23.3 µM | 23.9 µM |  | 14.8 µM | 9.33 | 5.29 µM | 12.1 µM | 17.2 | 6.24 µM | 11.2 µM | 10.4 µM |
| Cc1ccc(S(=O)(=O)CNC(=S)CCCC(=S)NCS(=O)(=O)c2ccc(C)cc2)cc1 |  | > 100 µM | > 100 µM | > 100 µM | 50.3 µM | > 100 µM | > 100 µM | > 100 µM | > 100 µM | > 100 |  |  |  |  |  |  |  |  |
| CCOC(=O)/C=C1\SC(=Nc2ccc(C#N)cc2)N(CCN2C(=O)/C(=C/C(=O)OCC)SC2=Nc2ccc(C#N)cc2)C1=O |  | 6.61 µM | 2.38 µM | 8.39 µM | 36.5 µM | 30 µM | 18.9 µM | 16.6 µM | 11.3 µM |  | 2.4 µM | 0.441 | 2.55 µM | 13.7 µM | 11 | 5.43 µM | 2.58 µM | 2 µM |
